# Laboratory results taken from US7544497B2, “Compositions for manipulating the lifespan and stress response of cells and organisms” (President and Fellows of Harvard College, priority 2003, dated 2009).
# Legend:
# [1] = biological target: T1, Human recombinant SIRT2 (Homo sapiens, UniProt Q8IXJ6); test: SIRT2 deacetylation assay (Fluor de Lys-SIRT2); assay type: biochemical; details: 25 μM Fluor de Lys-SIRT2, 25 μM NAD+, 20 minutes, 37° C.
# T1 sequence (Q8IXJ6 1-389): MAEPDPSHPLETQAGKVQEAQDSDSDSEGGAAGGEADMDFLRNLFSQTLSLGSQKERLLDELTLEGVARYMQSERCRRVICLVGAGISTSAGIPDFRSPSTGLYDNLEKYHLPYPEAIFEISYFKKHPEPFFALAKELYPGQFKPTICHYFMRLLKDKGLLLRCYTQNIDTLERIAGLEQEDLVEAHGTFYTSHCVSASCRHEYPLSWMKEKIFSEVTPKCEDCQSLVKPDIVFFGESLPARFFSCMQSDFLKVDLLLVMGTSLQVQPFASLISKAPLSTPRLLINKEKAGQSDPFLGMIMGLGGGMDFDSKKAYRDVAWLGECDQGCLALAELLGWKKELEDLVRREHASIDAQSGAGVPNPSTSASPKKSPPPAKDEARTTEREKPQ
# Description: Yeast Sir2 and human SIRT1 are very homologous and differ from human SIRT2 by the addition of an N-terminal domain that is absent in SIRT2. […] Thus, based on the difference in structure of SIRT1 and SIRT2, i.e., the absence of an N-terminal domain (see FIG. 8), it is believed that the N-terminal domain of SIRT1 and Sir2 is necessary for activation by the compounds described herein. In particular, it is likely that the activator compounds described herein interact with the N-terminal portion of sirtuins. The N-terminal portion of SIRT1 that is necessary for the action of the compounds is from about amino acid 1 to about amino acid 176, and that of Sir2 is from about amino acid 1 to about amino acid 175.
# [2] = biological target: T2, recombinant dSir2 (Drosophila melanogaster, UniProt Q9VK34); test: dSir2 deacetylation assay (Fluor de Lys); assay type: biochemical, D. melanogaster; details: dose-dependent; 25 μM NAD+, 10 μM FdL
# T2 sequence (Q9VK34 1-823): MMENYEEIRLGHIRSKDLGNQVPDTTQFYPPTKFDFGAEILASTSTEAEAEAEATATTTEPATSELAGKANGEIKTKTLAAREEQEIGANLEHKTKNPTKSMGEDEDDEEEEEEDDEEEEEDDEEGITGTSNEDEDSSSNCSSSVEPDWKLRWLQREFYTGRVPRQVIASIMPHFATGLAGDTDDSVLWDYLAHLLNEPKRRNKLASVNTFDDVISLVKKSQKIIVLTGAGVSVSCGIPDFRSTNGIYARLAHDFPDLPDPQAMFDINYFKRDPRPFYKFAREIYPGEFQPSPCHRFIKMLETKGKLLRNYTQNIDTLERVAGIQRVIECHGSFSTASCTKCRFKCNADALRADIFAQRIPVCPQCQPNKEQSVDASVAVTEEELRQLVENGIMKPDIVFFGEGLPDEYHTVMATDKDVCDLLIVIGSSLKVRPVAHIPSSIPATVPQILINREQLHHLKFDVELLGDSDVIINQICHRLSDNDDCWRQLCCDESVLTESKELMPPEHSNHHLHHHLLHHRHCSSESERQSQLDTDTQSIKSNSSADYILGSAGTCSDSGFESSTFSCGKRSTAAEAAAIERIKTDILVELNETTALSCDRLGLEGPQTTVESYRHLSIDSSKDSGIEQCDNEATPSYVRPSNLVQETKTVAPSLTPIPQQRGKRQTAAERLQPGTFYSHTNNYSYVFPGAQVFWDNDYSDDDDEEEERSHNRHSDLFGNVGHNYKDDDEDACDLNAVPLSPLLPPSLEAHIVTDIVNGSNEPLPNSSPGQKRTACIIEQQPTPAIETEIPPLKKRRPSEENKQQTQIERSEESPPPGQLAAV
# Protocol: His6-tagged recombinant SIR-2.1 and dSir2 were purified from E. coli BL21(DE3) plysS cells harboring either pET28a-sir-2.1 or pRSETc-dSir2 plasmids. Cells were grown in LB medium containing kanamycin (50 μg/mL) for pET28a-sir-2.1 or ampicillin (100 μg/ml) and chloramphenicol (25 μg/ml) for pRSETc-dSir2 at 30° C. (dSir2) or 37° C. (SIR-2.1) to an OD600 of 0.6-0.8.
# From 0.1 to 1 μg of SIR-2.1 and 1 μg of dSir2 were used per deacetylation assay as previously described with modifications (SIR-2.1: 200 μM NAD^+, 10 μM Fluor de Lys, FdL; dSir2: 25 μM NAD^+, 10 μM FdL)^26. […] Drosophila S2 cells were grown in Schneider media with fetal calf serum at 23-28° C., seeded at 9×10^4 cells/well, grown overnight and then exposed to 1 μM TSA, 500 μM polyphenols, and 200 μM FdL for 2 hr. […] Unless otherwise indicated all initial rate measurements were means of three or more replicates obtained with single incubation times, at which point 5% or less of the substrate initially present was deacetylated.
structure (smiles),measurement,setting,value
"Oc1ccc(/C=C/c2cc(O)cc(O)c2)cc1 [Resveratrol, 3,5,4′-Trihydroxy-trans-stilbene]",effect of increasing concentrations on SIRT2 activity,[1],decrease
same,"stimulation of deacetylation, dSir2 (up to)",[2],≤ 2.4 fold
